Patent US20020169111A1, “Reversal of multidrug resistance in human colon carcinoma cells” (American Cyanamid Comany, priority 1998, published 2002)
Read-outs that look alike come from different tables or passages of the source.

Columns and labels:
S1-M1-3.2 cells [1] = test: Cytotoxicity of antitumor agents, 3-day SRB assay, mitoxantrone-selected cells; format: cell-based, human; conditions: relative to S1; 2-7 independent experiments
Experimental: Cells were cultured for three days in the presence of the antitumor agent (triplicate points per dose). Following a 3-day growth period, cells were fixed in 10% trichloroacetic acid (TCA) for 1 hour, washed extensively with water, and cell-associated protein was stained using 0.1% sulforhodamine B (SRB), a protein binding reagent [Rubinstein et al., Journal of the National Cancer Institute 82, 1113-1118 (1990) and Skehan et al., Journal of the National Cancer Institute 82, 1107-1112 (1990)]. Excess reagent was removed by washing plates in 5% acetic acid, the dye was solubilized in 10 mM Tris base, and absorbance determined in a UV Max spectrophotometer (Molecular Devices, Menlo Park, Calif.) at 540 nm. Cell survival was estimated relative to control wells (no drugs). EC50 values (μM) were estimated from cytotoxicity curves. For S1, the values shown [mean ±SE (number of independent observations)] are taken from Zhang et al., “P-Glycoprotein Mediates Profound Resistance to Bisantrene,” Oncol. Res., 6:291-301, 1994. Values for S1-M1-3.2 are compiled from 2-7 independent experiments.

S1-M1-3.2 cells [2] = test: Dose modifying factor of FTC (SRB, EC50 ratio); format: cell-based, human; conditions: S1-M1 versus S1, no reversal agent
Experimental: (§1) Cell survival was estimated after 3 days using the SRB assay. Cell survival was determined by the SRB assay and EC50 values were determined from toxicity curves. The dose modifying factor (DMF) is the ratio of EC50 values obtained in the absence and presence of reversal agent. Maximum DMF values (shown in parentheses) is the ratio of EC50 values of resistant and sensitive cells in the absence of the reversal agent. This value is obtained when resistance is reversed completely, and is the equivalent of the relative resistance.

MCF 7/AdVp cells = format: cell-based, human
Experimental: as §1
(§2) In order to determine the utility of FTC as a reversal agent in other multidrug resistant cell lines, FTC was tested in two breast cancer cell lines which show a multidrug resistant phenotype with no overexpression of P-gp or MRP.

MCF 7/mtxR cells = format: cell-based, human
Experimental: as §1, §2

HL-60/AR cells = format: cell-based
Experimental: as §1

MCF-7/BCRP cells [3] = test: Dose modifying factor of FTC in BCRP-transfected cells; format: cell-based, human; conditions: MCF-7/BCRP versus MCF-7, no reversal agent
Experimental: Cell survival was estimated after 3 days using the SRB assay, and EC50 values were determined from cytotoxicity curves.

S1 cells [4] = test: Drug accumulation analysis with [14C] drug; format: cell-based, human; conditions: [14C] drug, 90 minutes at 37° C.
Experimental: (§3) To determine the mechanism of resistance, drug resistant and sensitive cells were incubated with radioactive analogues of antitumor agents and cell-associated radioactivity was measured by scintillation counting. Alternatively, surrogates of chemotherapeutic drugs may be used. The surrogate has no antitumor activity itself but interacts with the cancer cell proteins such as P-gp or MRP in a similar manner as an anticancer drug. The surrogate chemotherapeutic drug would have a property such as fluorescence which is useful for determining the drug resistance mechanisms such as efflux.
(§4) Cells were plated in 60 mm dishes (1×10^6 cells per dish) or in 24 well clusters (2 ×10^5 cells per well) and allowed to grow for 1-2 days. […] Drugs used were [^14C]-mitoxantrone (Amersham, 1 or 5 μM; specific activity 66 mCi/mmol) or [^14C]-doxorubicin (Amersham, 0.5 or 3 μM; specific activity 50-62 mCi/mmol ). […] Unbound drug was removed by washing twice in ice-cold phosphate buffered saline (PBS), cells were solubilized in 2 N NaOH at 37° C. for 1-2 hours, and analyzed by scintillation counting. Results were normalized to cell protein content measured by a Lowry assay.
(§5) The cells were then washed, solubilized, and counted in a scintillation counter. Values are mean disintegration per minute per μg protein of triplicate determinations ± standard deviation.

S1-B1-20 cells [5] = test: Drug accumulation analysis with [14C] drug; format: cell-based, human; conditions: [14C] drug, 90 minutes at 37° C.
Experimental: as §3, §4, §5

S1-M1-3.2 cells [6] = test: Drug accumulation analysis with [14C] drug; format: cell-based, human; conditions: for Drug Accumulation, no FTC: S1-M1-3.2 cells, [14C] drug, 90 minutes at 37° C.; for drug accumulated compared with the parental cells: S1-M1-3.2 versus S1, no FTC
Experimental: as §3, §4, §5

MCF-7/BCRP cells [7] = format: cell-based, human; conditions: MCF-7/BCRP; 1 μM [14C]-doxorubicin, 1 hour retention phase
Experimental: All incubations were carried out in the absence or presence of FTC (1 or 5 μM).

S1 cells [8] = system: S1 cells
Experimental: (§6) Cell-associated radioactivity was measured at the indicated times. Values are mean percentage of drug remaining (triplicate determinations) ± standard deviation.
(§7) After 1 hour, cells were prepared for analysis by scintillation counting. Values shown are mean percentage of drug remaining (triplicate determinations) ± standard deviation.

S1-M1-3.2 cells [9] = system: S1-M1-3.2 cells
Experimental: as §6, §7

S1-B1-20 cells [10] = system: S1-B1-20 cells
Experimental: as §6, §7

MCF/MX cells = test: Resistance of MCF/MX cells to camptothecins; format: cell-based

Structure (SMILES)	S1-M1-3.2 (relative resistance) (S1-M1-3.2 cells [1])	Maximum DMF (in parentheses; relative resistance to the antitumor agent) (S1-M1-3.2 cells [2])	Maximum DMF (in parentheses; relative resistance to the antitumor agent) (MCF 7/mtxR cells)	Maximum DMF (in parentheses; relative resistance to the antitumor agent) (HL-60/AR cells)	Maximum DMF (in parentheses; relative resistance to the antitumor agent) (MCF-7/BCRP cells [3])	Drug Accumulation, no FTC (S1 cells [4])	Drug Accumulation, no FTC (S1-B1-20 cells [5])	Drug Accumulation, no FTC (S1-M1-3.2 cells [6])	drug accumulated compared with the parental cells (S1-M1-3.2 cells [6])	resistance of MCF/MX cells (MCF/MX cells)	also measured
CC(=O)O[C@H]1C(=O)[C@@]2(C)[C@H]([C@H](OC(=O)c3ccccc3)[C@]3(O)C[C@H](OC(=O)[C@H](O)[C@@H](NC(=O)c4ccccc4)c4ccccc4)C(C)=C1C3(C)C)[C@]1(OC(C)=O)CO[C@@H]1C[C@@H]2O [paclitaxel, reference compound]	6	6	1.1 (2.0)	2.6 (5.1)	2.7	–	–	–	–	–	Maximum DMF (in parentheses; relative resistance to the antitumor agent) (MCF 7/AdVp cells): 0.7 (10.7)
COc1cccc2c1C(=O)c1c(O)c3c(c(O)c1C2=O)C[C@@](O)(C(=O)CO)C[C@@H]3O[C@H]1C[C@H](N)[C@H](O)[C@H](C)O1 [doxorubicin, reference compound]	–	–	–	–	–	114 ± 11 DPM/μg protein	23 ± 1 DPM/μg protein	19 ± 3 DPM/μg protein	17%	–	[^14C] doxorubicin retention, No FTC (MCF-7/BCRP cells [7]): 5.4 ± 0.48 DPM per microgram protein
O=C1c2c(O)ccc(O)c2C(=O)c2c(NCCNCCO)ccc(NCCNCCO)c21 [mitoxantrone]	1435	1435	114 (2090)	3.3 (53)	35.1	2430 ± 252 DPM/μg protein	1086 ± 100 DPM/μg protein	996 ± 57 DPM/μg protein	41%	–	% mitoxantrone remaining over time (hours) (S1 cells [8]; 0 h): 100 ± 6%; % mitoxantrone remaining over time (hours) (S1 cells [8]; 0.5 h): 99 ± 17%; % mitoxantrone remaining over time (hours) (S1 cells [8]; 1 h): 101 ± 3%; % mitoxantrone remaining over time (hours) (S1 cells [8]; 2 h): 100 ± 11%; % mitoxantrone remaining over time (hours) (S1 cells [8]; 4 h): 95 ± 13%; % mitoxantrone remaining over time (hours) (S1-M1-3.2 cells [9]; 0 h): 100 ± 2%; % mitoxantrone remaining over time (hours) (S1-M1-3.2 cells [9]; 0.5 h): 51 ± 6%; % mitoxantrone remaining over time (hours) (S1-M1-3.2 cells [9]; 1 h): 44 ± 1%; % mitoxantrone remaining over time (hours) (S1-M1-3.2 cells [9]; 2 h): 45 ± 3%; % mitoxantrone remaining over time (hours) (S1-M1-3.2 cells [9]; 4 h): 31 ± 2%; % mitoxantrone remaining over time (hours) (S1-B1-20 cells [10]; 0 h): 100 ± 5%; % mitoxantrone remaining over time (hours) (S1-B1-20 cells [10]; 0.5 h): 58 ± 4%; % mitoxantrone remaining over time (hours) (S1-B1-20 cells [10]; 1 h): 45 ± 10%; % mitoxantrone remaining over time (hours) (S1-B1-20 cells [10]; 2 h): 41 ± 3%; % mitoxantrone remaining over time (hours) (S1-B1-20 cells [10]; 4 h): 39 ± 3%
CC[C@@]1(O)C(=O)OCc2c1cc1n(c2=O)Cc2cc3c(N)cccc3nc2-1 [9-amino camptothecin]	–	–	–	–	–	–	–	–	–	120 fold	–
CC[C@@]1(O)C(=O)OCc2c1cc1n(c2=O)Cc2cc3ccccc3nc2-1 [camptothecin]	2	–	–	–	–	–	–	–	–	3.2 fold	–
